Results: patent publication US20160067255A1, “METHODS OF TREATING OR PREVENTING HIV IN PATIENTS USING A COMBINATION OF TENOFOVIR ALAFENAMIDE AND DOLUTEGRAVIR” (priority 2014, published 2016)

Assay: Oral pharmacokinetics of TAF alone or in combination with dolutegravir in male beagle dogs (plasma, LC/MS)
Conditions: dog; for half-life: T1/2 (estimated terminal elimination half-life)
Experimental: TAF was dosed at 5 mg/kg (as free base) orally in solution to fasted male beagle dogs (N=6 animals, mean weight 10 kg). On Day 1, TAF was administered alone. On days 2, 3, 4 and 5, 3 mg/kg of Dolutegravir (DTG) was administered alone (as free acid). Both compounds were administered on Day 6. The plasma pharmacokinetic profiles of TAF and its nucleotide metabolite tenofovir (TFV) were determined by LC/MS in samples taken on Day 1 and Day 6 of dosing.
The oral dosing formulation for TAF was 0.1% Hydroxypropylmethylcellulose K100LV, 0.1% Polysorbate 20, 99.8% deionized water. For dolutegravir, the oral dosing formulation was 0.5% Hydroxypropylmethylcellulose LV 100 and 0.1% Tween 20 in deionized water.
The animals were fasted overnight prior to each dose administration and up to 4 hr after dosing. The blood samples were collected on days 1 and 6 predose and at the following time points following dosing: 0.25, 0.5, 1, 2, 4, 6, 8, 12 and 24 hour. The blood samples were collected into Vacutainer™ tubes containing Sodium Fluoride/Potassium Oxalate (BD Biosciences). The blood samples were centrifuged at 4° C. to separate plasma. Plasma samples were frozen and stored in −70° C. freezers.
Plasma was prepared by protein precipitation by adding acetonitrile to a final concentration of 70% in the presence of internal standard. Following filtration to remove precipitated protein, samples were evaporated, reconstituted with mobile phase A (0.2% formate in water) and analyzed using injections of 5 μl for analysis.

[1] = Day 6 (TAF + DTG) versus Day 1 (TAF alone)
[2] = male, beagle, in vivo, po, 5 mg/kg, TAF in plasma, Day 1, TAF 5 mg/kg oral alone, fasted male beagle dogs, mean n=6
[3] = male, beagle, in vivo, po, 5 mg/kg, TAF in plasma, Day 6, TAF 5 mg/kg oral co-administered with DTG 3 mg/kg after 4 daily doses of DTG, male beagle dogs, mean n=6
[4] = male, beagle, in vivo, po, 5 mg/kg

SMILES | increase of maximal concentrations (Cmax) of TAF upon coadministration with DTG [1] | increase of oral exposure of TAF upon coadministration with DTG [1] | AUC(0-t) (male, beagle, in vivo, po, 5 mg/kg, AUC0-24hr, TAF in plasma, Day 1, TAF 5 mg/kg oral alone, fasted male beagle dogs, mean n=6) [µM·h] | AUC(0-t) (male, beagle, in vivo, po, 5 mg/kg, AUC0-24hr, TAF in plasma, Day 6, TAF 5 mg/kg oral co-administered with DTG 3 mg/kg after 4 daily doses of DTG, male beagle dogs, mean n=6) [µM·h] | Cmax [2] [nM] | Cmax [3] [nM] | half-life [2] [min] | Tmax [2] [min] | Tmax [3] [min] | TFV levels in Day 1 pre-dose plasma samples (male, beagle, in vivo) [nM] | AUC(0-t) [4] [µM·h] | AUC(0-inf) (male, beagle, in vivo, po, 5 mg/kg, AUC0-inf) [µM·h] | Cmax [4] [nM] | half-life [4] [min] | Tmax [4] [min]
CC(C)OC(=O)[C@H](C)N[P@](=O)(CO[C@H](C)Cn1cnc2c(N)ncnc21)Oc1ccccc1 [TAF, 9-[(R)-2-[[(S)-[[(S)-1-(isopropoxycarbonyl)ethyl]amino]phenoxyphosphinyl]-methoxy]propyl]adenine] | approximately 2 fold | approximately 2 fold | 0.174 | 0.345 | 412 | 818 | 11.4 | 17.4 | 15 |  |  |  |  |  | 
C[C@H](Cn1cnc2c(N)ncnc21)OCP(=O)(O)O [TFV, Tenofovir] |  |  |  |  |  |  |  |  |  | < 10 | 1.6 | 2.92 | 253 | 1500 | 75
